These results are taken from patent US7314863B2, “Cyclic peptidomimetic urokinase receptor antagonists” (Wilex AG, priority 1999, dated 2008).

A short description of data set [1]: Peptide stability in heparinized human complete blood (HPLC). To be noted: for stability in heparinized human blood: 37° C., 20.5 h, HPLC of plasma; for distribution between plasma and blood cells: heparinized human blood, peak integrals versus PBS control. The format is in vitro ADME. As to the method: (§1) The stability of uPA-derived peptides in human serum or complete blood was assayed in vitro.
(§2) For stability studies in human complete blood, coagulation of venous blood was inhibited by heparin sodium (1 000 IU per 10 ml of complete blood), and the blood was used freshly. The peptides to be tested were added to the body fluids in the form of peptide-mixture stock solutions (≧1 μg per peptide in H2O) at a concentration of 5 μg/100 μl of serum or 200 μl of complete blood (per peptide) and incubated at 37° C. for various times. Prior to HPLC analysis, complete blood incubations were centrifuged at 16 000×g at room temperature for 5 min and the plasma in the supernatant was removed.
Sera and plasmas were prepurified via HLB precolumns (Waters GmbH, Oasis HLB extraction cartridge 1 cm^3/30 mg) prior to HPLC analysis. For this purpose, 100 μl of liquid were diluted with PBS to 1 ml and applied to said HLB precolumns equilibrated with 1 ml of 100% methanol and 1 ml of H2O. The columns were washed with 1ml of 5% methanol in H2O and eluted with 1 ml of 100% methanol. The first 200 μl (4 drops) of the eluate were discarded as void volume. The next 500 μl of eluate were diluted with 500 μl of PBS and analyzed by HPLC. The remaining 300 μl of the eluate were discarded. HPLC analysis was carried out using a YMC-5 C18 analytical column and a 20-60% gradient of H2O, 0.1% trifluoroacetic acid and acetonitrile, 0.1% trifluoroacetic acid over 30 min and detecting the analytes at 220 nm.
The stability in heparinized human blood (FIG. 4b) was studied by adding 750 μl of freshly prepared heparinized human blood to 37.5 μg of the peptides. Immediately thereafter, 375 μl were removed by centrifugation. 100 μl of the plasma supernatant were analyzed (middle profile). The remaining 375 μl were incubated with gentle agitation at 37° C. for 20.5 h and then analyzed (bottom profile). As a control, 5 μg of the peptides had already been admixed with 1 ml of PBS and analyzed (top profile).

A short description of data set [2]: Peptide stability in human serum (HPLC). It counts as in vitro ADME. To be noted: 37° C., 20.5 h. How it is done:
as §1
Human sera were prepared by allowing venous blood to coagulate without anti-coagulant in polypropylene tubes at 37° C. for 45 min. The clots adhering to the vessel wall were removed using a plastic stick and removed by centrifugation at 1200×g at room temperature for 12 min. The serum in the supernatant was removed and either used freshly for stability studies or frozen in aliquots at −20° C. for further use.
as §2
Sera and plasmas were prepurified via HLB precolumns (Waters GmbH, Oasis HLB extraction cartridge 1 cm^3/30 mg) prior to HPLC analysis. For this purpose, 100 μl of liquid were diluted with PBS to 1 ml and applied to said HLB precolumns equilibrated with 1 ml of 100% methanol and 1 ml of H2O. The columns were washed with 1ml of 5% methanol in H2O and eluted with 1 ml of 100% methanol. The first 200 μl (4 drops) of the eluate were discarded as void volume. The next 500 μl of eluate were diluted with 500 μl of PBS and analyzed by HPLC. […]
The stability of the peptides inhuman serum (FIG. 4a) was studied by adding a mixture of in each case 12.5 μg of the peptides to about 250 μl of serum. 100 μl thereof were diluted with PBS to 1 ml, prepurified on an HLB precolumn and analyzed immediately by HPLC (middle profile). A further 100 μl were analyzed after 20.5 h of incubation at 37° C. […] As a control, in each case 5 μg of the peptides were admixed with 1 ml of PBS and analyzed (top profile). […]

A further data set has as its target T1, uPAR (Homo sapiens, UniProt Q03405).
T1 construct: human promyeloid cell line U937 as source for cellular native uPAR; endogenous in cells; host or cells: U937 cells stimulated with PMA
In words: Flow cytometry: inhibition of FITC-pro-uPA binding to uPAR on PMA-stimulated U937 cells. To be noted: for IC50: FIG. 1a, read-out: IC50 (inhibition of uPA/uPAR interaction) (converted); for affinity/activity for uPAR lower than that of ATF: relative to ATF. As to the method:
The capacity of the synthetic peptides for inhibiting uPA/uPAR interaction was determined using the human promyeloid cell line U937 as source for cellular native uPAR by means of flow cytometry on a FACScan flow cytometer (Becton-Dickinson, Heidelberg, Germany) (Chuchulowski et al., Fibrinolysis 6, Suppl. 4 (1992), 95-102; Magdolen et al., (1996), supra). The U937 cells were stimulated with […] phorbol 12-myristate 13-acetate (PMA) for 48 h. After stimulation with PMA, the U937 cells express considerable amounts of cell surface-associated uPAR.
The stimulated cells were treated with 50 m glycine-HCl, 0.1 NaCl, pH 3.6 at room temperature for 1 min, in order to dissociate endogenous receptor-bound uPA. Subsequently, the acidic buffer was neutralized by 0.5 M HEPES, 100 mM NaCl, pH 7.5. The cells were then immediately washed twice with PBS/0.1% bovine serum albumin (BSA) and centrifuged at 300×g at room temperature for 10 min. The cells were resuspended in PBS/0.1% BSA, adjusted to a concentration of 10^6 cells per ml and incubated simultaneously with 1.6 ng of FITC-conjugated pro-uPA and different amounts of the synthetic peptides at room temperature for 45 min. Prior to analysis, propidium iodide, a fluorescent dye binding specifically double-stranded DNA, was added to each sample, in order to determine the viability of the analyzed U937 cells. Damaged, propidium iodide-labeled cells were excluded from the analysis.

A further data set relates to plasmin. Briefly: Sensitivity to the tissue protease plasmin (HPLC). The format is in vitro ADME. To be noted: 0.05 U plasmin, 37° C., 30 min, pH 7.5. How it is done: The sensitivity of peptides against the attack of various proteases of the digestive tract was determined in vitro using purified enzymes under suitable buffer conditions. In general, 10 μg of peptide were incubated in a 100 μl volume with 2 μg of protease at 37° C. for 30 min under the buffer conditions for the activity controls as stated by the manufacturer. After incubation and dilution with 300 μl of H2O, the mixtures were analyzed directly, without prepurification via a precolumn, by HPLC using a 20-60% gradient of H2O, 0.1% trifluoroacetic acid and acetonitrile, 0.1% trifluoroacetic acid.
Pepsin (Sigma, Deisenhofen, Germany) was incubated with peptides in 52 mM HCl. Incubations with trypsin (Sigma) were carried out in 63 mM sodium phosphate pH 7.6. Chymotrypsins α, β, γ,δ (ICN) were incubated in 50 mM CaCl2 and 40 mM Tris/HCl pH 7.8. This was followed by incubating with bacteriae proteinase K in unbuffered water. The positive control used was the *peptide cyclo[19,31]-uPA16-32 which corresponds to the original sequence of the uPA omega loop except for the cysteine bridge. The peptide sensitivity against the tissue protease plasmin (Sigma) was assayed in mixtures with 10 or 5 μg of peptides and 0.05 U of plasmin in 100 μl of 200 mM sodium phosphate pH 7.5 at 37° C. and a 30 min incubation period.
FIG. 5 depicts HPLC profiles of peptide variants prior to (top profiles) and after (bottom profiles) incubation with plasmin. Part (A) of the figure depicts the unaltered lead structure cyclo[21,29][D-Cys^21Cys^29]-uPA21-30 with lysine at position 23, (B) the ornithine-substituted variant cyclo[21,29][D-Cys^21Orn^23Cys^29]-uPA21-30, (C) the diaminobutyric acid-substituted variant cyclo[21,29][D-Cys^21Dab^23Cys^29]-uPA21-30, (D) the diaminopropionic acid-substituted variant cyclo[21,29][D-Cys^21Dap^23Cys^29]-uPA21-30, (E) the norleucine-substituted variant cyclo[21,29][D-Cys^21Nle^23Cys^29]-uPA21-30 and (F) the arginine-substituted variant cyclo[21,29][D-Cys^21Arg^23Cys^29]-uPA21-30. The protease plasmin appears in the bottom profiles in each case at approx. 17.5 min.

Positions of bridges follow the written chain, without caps; N, C: chain ends. Non-standard residues stand in square brackets, D forms with d. Residues, ends and D or L forms follow the SMILES beside them. Tic = O=C(O)[C@@H]1Cc2ccccc2CN1; Nle = CCCC[C@H](N)C(=O)O; Orn = NCCC[C@H](N)C(=O)O; Dab = NCC[C@H](N)C(=O)O; Dap = NC[C@H](N)C(=O)O

T1 sequence (Q03405 23-305): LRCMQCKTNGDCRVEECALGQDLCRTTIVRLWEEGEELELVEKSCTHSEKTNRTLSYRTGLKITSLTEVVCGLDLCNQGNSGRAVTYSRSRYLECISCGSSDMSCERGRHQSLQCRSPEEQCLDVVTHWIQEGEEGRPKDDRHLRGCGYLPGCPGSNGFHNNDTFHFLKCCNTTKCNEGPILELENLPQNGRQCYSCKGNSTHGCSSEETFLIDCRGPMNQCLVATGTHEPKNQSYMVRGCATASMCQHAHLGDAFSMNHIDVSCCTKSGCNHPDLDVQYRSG

As for `CC[C@H](C)[C@@H]1NC(=O)[C@H](CC(N)=O)NC(=O)[C@H](CO)NC(=O)[C@@H]2Cc3ccccc3CN2C(=O)[C@H](Cc2ccc(O)cc2)NC(=O)[C@H](CCCCN)NC(=O)[C@H](CC(N)=O)NC(=O)[C@H](N)CSSC[C@@H](C(=O)N[C@@H](Cc2c[nH]c3ccccc23)C(=O)O)NC1=O` [cyclo[21,29][D-Cys^21,Tic^25,Cys^29]-uPA21-30] (H-[dC]NKY[Tic]SNICW-OH; disulfide 1-9; N-terminus assumed), in data set [1], the “stability in heparinized human blood” value is recorded as “stable”; the “distribution between plasma and blood cells” value is given as “distributed mainly in the plasma”. For the same molecule, in data set [2], the “stability in human serum” value is recorded as “unaltered”.
With `CC[C@H](C)[C@@H]1NC(=O)[C@H](CC(N)=O)NC(=O)[C@H](CO)NC(=O)[C@H](Cc2ccccc2)NC(=O)[C@H](Cc2ccc(O)cc2)NC(=O)[C@H](CCCCN)NC(=O)[C@H](CC(N)=O)NC(=O)[C@@H](N)CSSC[C@@H](C(=O)N[C@@H](Cc2c[nH]c3ccccc23)C(=O)O)NC1=O` [cyclo[21,29][Cys^21,29]-uPA21-30, reference compound] (H-CNKYFSNICW-OH; disulfide 1-9; N-terminus and C-terminus assumed), on uPAR, the IC50 was 2.26 µM and the “affinity/activity for uPAR lower than that of ATF” value is “hundred-fold lower”.
For `CC[C@H](C)[C@@H]1NC(=O)[C@H](CC(N)=O)NC(=O)[C@H](CO)NC(=O)[C@H](Cc2ccccc2)NC(=O)[C@H](Cc2ccc(O)cc2)NC(=O)[C@H](CN)NC(=O)[C@H](CC(N)=O)NC(=O)[C@H](N)CSSC[C@@H](C(=O)N[C@@H](Cc2c[nH]c3ccccc23)C(=O)O)NC1=O` [cyclo[21,29][D-Cys^21Dap^23Cys^29]-uPA21-30] (H-[dC]N[Dap]YFSNICW-OH; disulfide 1-9; N-terminus assumed), the stability against plasmin result with plasmin is “two small unidentified peaks appeared”.
Consider `CC[C@H](C)[C@@H]1NC(=O)[C@H](CC(N)=O)NC(=O)[C@H](CO)NC(=O)[C@H](Cc2ccccc2)NC(=O)[C@H](Cc2ccc(O)cc2)NC(=O)[C@H](CCCNC(=N)N)NC(=O)[C@H](CC(N)=O)NC(=O)[C@H](N)CSSC[C@@H](C(=O)N[C@@H](Cc2c[nH]c3ccccc23)C(=O)O)NC1=O` [cyclo[21,29][D-Cys^21Arg^23Cys^29]-uPA21-30] (H-[dC]NRYFSNICW-OH; disulfide 1-9; N-terminus assumed), for which the stability against plasmin entry in the data set with plasmin was “plasmin-sensitive”.
For `CC[C@H](C)[C@@H]1NC(=O)[C@H](CC(N)=O)NC(=O)[C@H](CO)NC(=O)[C@H](Cc2ccccc2)NC(=O)[C@H](Cc2ccc(O)cc2)NC(=O)[C@H](CCCN)NC(=O)[C@H](CC(N)=O)NC(=O)[C@H](N)CSSC[C@@H](C(=O)N[C@@H](Cc2c[nH]c3ccccc23)C(=O)O)NC1=O` [cyclo[21,29][D-Cys^21Orn^23Cys^29]-uPA21-30] (H-[dC]N[Orn]YFSNICW-OH; disulfide 1-9; N-terminus assumed), the stability against plasmin entry with plasmin is given as “stable against plasmin”.
As for `CC[C@H](C)[C@@H]1NC(=O)[C@H](CC(N)=O)NC(=O)[C@H](CO)NC(=O)[C@H](Cc2ccccc2)NC(=O)[C@H](Cc2ccc(O)cc2)NC(=O)[C@H](CCN)NC(=O)[C@H](CC(N)=O)NC(=O)[C@H](N)CSSC[C@@H](C(=O)N[C@@H](Cc2c[nH]c3ccccc23)C(=O)O)NC1=O` [cyclo[21,29][D-Cys^21Dab^23Cys^29]-uPA21-30] (H-[dC]N[Dab]YFSNICW-OH; disulfide 1-9; N-terminus assumed), the stability against plasmin entry in the data set on plasmin was “stable against plasmin”.
On to “cyclo[19,31]-uPA16-32 [reference compound]”, for which the “stability in heparinized human blood” value in data set [1] is “instability”. Further, the “part of the amount of peptide added degraded” value in data set [1] (complete blood, 10-15 min between addition and prepurification) was > 80%. Also, the “stability in human serum” value in data set [2] is on record as “could no longer be detected”.
On to `CC[C@H](C)[C@@H]1NC(=O)[C@H](CC(N)=O)NC(=O)[C@H](CO)NC(=O)[C@H](Cc2ccccc2)NC(=O)[C@H](Cc2ccc(O)cc2)NC(=O)[C@H](CCCCN)NC(=O)[C@H](CC(N)=O)NC(=O)[C@H](N)CSSC[C@@H](C(=O)N[C@@H](Cc2c[nH]c3ccccc23)C(=O)O)NC1=O` [cyclo[21,29][D-Cys^21,Cys^29]uPA21-30] (H-[dC]NKYFSNICW-OH; disulfide 1-9; N-terminus and C-terminus assumed), for which, in data set [1], the “stability in heparinized human blood” value is “stable”; the “distribution between plasma and blood cells” value is “distributed mainly in the plasma”. Besides, the stability against plasmin result with plasmin was “a new unknown peak appeared”. Also, at uPAR, the IC50 is 0.078 µM and the “affinity/activity for uPAR lower than that of ATF” value came to 4. In data set [2], the “stability in human serum” value is “unaltered”.
Turning to `CCCC[C@@H]1NC(=O)[C@H](CC(N)=O)NC(=O)[C@H](N)CSSC[C@@H](C(=O)N[C@@H](Cc2c[nH]c3ccccc23)C(=O)O)NC(=O)[C@H]([C@@H](C)CC)NC(=O)[C@H](CC(N)=O)NC(=O)[C@H](CO)NC(=O)[C@H](Cc2ccccc2)NC(=O)[C@H](Cc2ccc(O)cc2)NC1=O` [cyclo[21,29][D-Cys^21Nle^23Cys^29]-uPA21-30] (H-[dC]N[Nle]YFSNICW-OH; disulfide 1-9; N-terminus assumed), the stability against plasmin result in the data set on plasmin was “stable against plasmin”.
